Experimental data from the NIST ThermoML archive (doi:10.1016/j.tca.2006.04.001).

Settings: Liquid, Pycnometric method

CCCCCCCCCCCCCCCCCC [octadecane]
Settings | specific volume [m3/kg]
299.25 K | 0.00129
301.35 K | 0.001292
303.35 K | 0.001295
305.45 K | 0.001295
307.55 K | 0.001298
309.55 K | 0.001301
311.65 K | 0.001301
313.65 K | 0.001304
315.75 K | 0.001308
317.75 K | 0.001311
318.65 K | 0.001318
319.85 K | 0.001317
320.65 K | 0.001319
323.55 K | 0.001323
325.45 K | 0.001324
328.35 K | 0.00133
330.35 K | 0.001331
333.25 K | 0.001335
335.15 K | 0.001337
338.05 K | 0.001341
341.05 K | 0.001345
342.95 K | 0.001346
345.85 K | 0.00135
347.85 K | 0.001354
350.75 K | 0.001357
352.65 K | 0.00136
355.55 K | 0.001363
357.55 K | 0.001364
360.45 K | 0.001368
362.35 K | 0.001372
365.25 K | 0.001375
367.25 K | 0.001377
370.15 K | 0.001382
372.05 K | 0.001385
374.95 K | 0.001388
376.95 K | 0.001391
379.85 K | 0.001395
381.75 K | 0.001398
384.75 K | 0.001402
386.65 K | 0.001404
389.55 K | 0.001409
391.55 K | 0.001411
394.45 K | 0.001416
396.35 K | 0.001419
399.25 K | 0.001423
401.25 K | 0.001425
404.15 K | 0.001429
406.05 K | 0.001433
408.95 K | 0.001437
410.95 K | 0.00144
413.85 K | 0.001444
415.75 K | 0.001448
418.65 K | 0.001451
420.65 K | 0.001455
423.55 K | 0.001459
425.45 K | 0.001456
428.45 K | 0.001464
430.35 K | 0.001464
433.25 K | 0.001474
435.25 K | 0.001471
438.15 K | 0.001482
440.05 K | 0.001478
442.95 K | 0.001488
444.95 K | 0.001485
447.85 K | 0.001496
449.75 K | 0.001498
452.65 K | 0.001502
454.65 K | 0.001506
457.55 K | 0.001512
459.45 K | 0.001513
462.45 K | 0.00152
464.35 K | 0.001522
467.25 K | 0.00153
469.15 K | 0.001528
472.15 K | 0.001538
474.05 K | 0.001535
476.95 K | 0.001546
478.95 K | 0.001545
481.85 K | 0.001557
483.75 K | 0.001554
486.65 K | 0.001564
488.65 K | 0.001562
491.55 K | 0.001573
493.45 K | 0.001571
496.35 K | 0.001577
498.35 K | 0.001582
500.25 K | 0.001587
503.15 K | 0.001592
505.15 K | 0.001595
508.05 K | 0.001602
510.95 K | 0.001609
512.95 K | 0.00161
515.85 K | 0.001619
518.75 K | 0.001623
520.65 K | 0.001628
523.55 K | 0.001634
525.55 K | 0.001639
527.45 K | 0.001644
530.35 K | 0.001649
533.25 K | 0.001657
535.25 K | 0.001659
538.15 K | 0.001666
541.05 K | 0.001675
543.05 K | 0.001677
545.95 K | 0.001685
548.85 K | 0.001691
550.75 K | 0.001697
553.65 K | 0.001704
555.65 K | 0.001706
558.55 K | 0.001714
560.45 K | 0.00172
563.45 K | 0.00173
566.35 K | 0.001737
568.25 K | 0.001741
